The record followed here is patent publication EP0888346B1, “CORALYNE ANALOGS AS TOPOISOMERASE INHIBITORS” (RUTGERS, THE STATE UNIVERSITY OF NEW JERSEY, priority 1996, dated 1997).

One series concerns the target T1, human topoisomerase I (Homo sapiens, UniProt P11387).
T1 construct: 15 amino acid vector-derived fusion (pET-11a leader); made in house; host or cells: E. coli BL21(DE3)
T1 sequence (P11387 1-765): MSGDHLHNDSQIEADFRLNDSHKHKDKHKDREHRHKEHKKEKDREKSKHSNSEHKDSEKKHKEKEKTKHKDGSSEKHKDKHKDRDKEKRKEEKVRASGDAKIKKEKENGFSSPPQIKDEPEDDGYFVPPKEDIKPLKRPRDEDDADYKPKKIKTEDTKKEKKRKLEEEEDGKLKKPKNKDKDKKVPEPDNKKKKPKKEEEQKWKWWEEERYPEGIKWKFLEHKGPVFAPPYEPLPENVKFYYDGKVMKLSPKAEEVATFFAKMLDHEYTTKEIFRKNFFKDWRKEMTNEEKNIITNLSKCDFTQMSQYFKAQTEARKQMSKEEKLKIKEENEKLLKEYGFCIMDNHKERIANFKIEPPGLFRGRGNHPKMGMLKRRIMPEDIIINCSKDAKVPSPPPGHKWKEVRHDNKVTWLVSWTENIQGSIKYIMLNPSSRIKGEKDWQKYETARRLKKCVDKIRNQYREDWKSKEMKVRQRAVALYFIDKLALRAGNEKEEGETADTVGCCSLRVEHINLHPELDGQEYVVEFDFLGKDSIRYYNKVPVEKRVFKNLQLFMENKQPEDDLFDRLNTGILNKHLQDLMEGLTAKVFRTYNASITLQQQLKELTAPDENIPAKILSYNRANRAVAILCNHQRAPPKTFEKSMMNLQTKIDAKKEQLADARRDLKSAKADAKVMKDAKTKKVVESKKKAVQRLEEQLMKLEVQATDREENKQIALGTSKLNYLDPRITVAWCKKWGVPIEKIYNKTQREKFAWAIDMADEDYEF
As to the kind of experiment: Topo I cleavage assay (plasmid YEpG DNA). The class given is biochemical. As to conditions: concentration relative to camptothecin (CPT) = 1 producing the same cleavage on the plasmid DNA. The text has this:
To obtain large quantity of human topoisomerase I, the human topoisomerase I cDNA was cloned into the pET-11a vector, in which transcription of the cDNA is under the control of the inducible T7 promoter (Studier et al., Methods in Enzymol., Vol. 185:60-89, San Diego: Academic Press (1990)). Briefly, a 3.4 kb DNA fragment containing the entire coding sequence of human topoisomerase I and approximately 1 kb of untranslated region downstream of the stop codon was isolated from the plasmid YCpGAL1-hTOP1 (Bjornsti et al., Cancer Res. 49:6318-6323 (1989)) by cutting at the BamHI and EcoRI sites. The vector pET-11a was cut with the same restriction enzymes, dephosphorylated and ligated to the insert in the proper reading-frame downstream of the vector cloning site. The ligation mixture was used to transform E. coli, the correct clone pET1B was isolated (see figure 2A for the map) and its identity confirmed by restriction mapping. Since the translational start in pET is positioned at an upstream NdeI site, the expressed topoisomerase I has a 15 amino acid fusion at its N-terminus. pET1B was then transformed into E. coli BL21(DE3), and, upon induction with 0.4 mM IPTG for 1 hour, the bacterial lysate was analyzed by 10 % SDS-PAGE. Expression was confirmed by Western blotting using rabbit antibodies against human topoisomerase I. Isolation of the expressed protein was done by a simple procedure. Briefly, E. coli cells were lysed by repeated sonic bursts. The sonic extract was made in 1 M NaCl and 6% polyethylene glycol (PEG) to remove nucleic acids. The PEG supernatant was chromatographed directly on a hydroxyapatite column. Expressed human DNA topoisomerase I was eluted at the 0.6 M potassium phosphate step. The eluted enzyme was dialyzed against 50% glycerol, 30 mM potassium phosphate (pH 7.0), 1 mM dithiothreitol (DTT) and 0.1 mM EDTA and stored at -20°C.
(§1) Cleavage assays for the recombinant topoisomerases I and calf thymus topoisomerases I and II were done as described (Liu et al., J. Biol. Chem. 258:15365-15370 (1983)). The plasmid YEpG DNA used for the cleavage assays was prepared and labeled at its 3'-end using the published procedures.

Series [1] concerns calf thymus topoisomerase II. Briefly: Topo II cleavage assay (plasmid YEpG DNA). As to conditions: concentration relative to VM-26 = 1 producing the same cleavage on the plasmid DNA. The class given is biochemical.
Description: The plasmid pET11a and the E. coli strain BL21(DE3) used for enzyme expression were purchased from Novagen. IPTG was purchased from Sigma. The ECL system used for the Western blotting analysis of bacterial lysates was from Amersham (UK). All the restriction enzymes and Vent polymerase were from New England Biolabs. Mammalian topoisomerase II was isolated from calf thymus glands according to the published procedure (Halligan et al., J. Biol. Chem. 260:2475-2482 (1985)). The single copy yeast plasmids YCpGAL1 expressing various topoisomerase I genes in JN2-134 yeast strain were a kind gift of Dr. M-A. Bjornsti (Thomas Jefferson University, Philadelphia, PA). All bacterial and yeast media were from Difco (Detroit, MI), while cell culture media were purchased from Gibco-BRL (Gaithersburg, MD).
as §1

For series [2], the system named is Human lymphoblast RPMI 8402 cells. As to the kind of experiment: MTT-microtiter plate tetrazolinium cytotoxicity assay (MTA). In kind it is cell-based. From the text:
(§2) The results were plotted and the IC50 then measured.

For series [3], the system named is camptothecin-resistant CPT-K5 cells. As to the kind of experiment: MTT-microtiter plate tetrazolinium cytotoxicity assay (MTA), camptothecin-resistant cells. Here is the method:
The IC50 of the drugs tested were determined by the MTT-microtiter plate tetrazolinium cytotoxicity assay (MTA) (Mosmann, T., J. Immunol. Methods 65:55-63 (1983); Denizot et al., J. Immunol. Methods 89:271-277 (1986)). Human lymphoblast RPMI 8402 cells and their camptothecin-resistant CPT-K5 cells (Andoh et al., Proc. Natl. Acad. Sci., USA 84:5565-5569 (1987)) were kindly provided by Dr. Toshiwo Andoh (Aichi Cancer Center Research Institute, Nagoya, Japan). […] Cells (2000 cells/well, seeded in […] growth medium) were grown in suspension at 37°C in 5% CO2 and maintained by regular passage in RPMI medium supplemented with 10% heat inactivated fetal bovine serum, L-glutamine (2 mM), penicillin (100 U/ml), and streptomycin (0.1 mg/ml). The cells were exposed continuously for 4 days to different drug concentrations, and assayed at the end of the fourth day. Each concentration and the no drug control were repeated at least twice in 6 replica wells. The results were plotted and the IC50 then measured. The drug sensitive human epidermoid carcinoma KB 3-1 cell line and its vinblastine-selected multidrug-resistant variant KB-V1 cells (Akiyama et al., Genetics 11:117-126 (1985)) were kindly provided by Dr. Michael Gottesmann (National Cancer Institute). They were grown as monolayer cultures at 37°C in 5% CO2 and maintained by regular passage in Dulbecco's minimal essential medium supplemented with 10% heat inactivated fetal bovine serum. KB-V1 cells were maintained in the presence of […] vinblastine.

Series [4] relates to human epidermoid carcinoma KB 3-1 cell line. As to the kind of experiment: MTA cytotoxicity assay, epidermoid carcinoma cells. In kind it is cell-based. Particulars: KB 3-1, 96 h. Here is the method: as §2
(§3) The coralyne analog 7c was tested for its effectiveness against glioblastoma cells. The assay used was similar to that described above for the RPMI-8402 cell line. The results are shown in table 2 below which compares the effect of Compound 7c against the leukemia cell line (RPMI 8402), epidermal carncinoma (KB3-1) and glioblastoma (SF-268): Table 2

For series [5], the system named is glioblastoma cell line SF-268. Briefly: MTA cytotoxicity assay, glioblastoma cells. The class given is cell-based. Particulars: for IC50: Homo sapiens, SF-268, 96 h, read-out: Cytotoxicity SF-268. Here is the method: as §2, §3
Where [6] appears, read: Homo sapiens, RPMI 8402, 96 h, read-out: Cytotoxicity IC50 RPMI.
Setting [7] is: Homo sapiens, CPT-K5, 96 h, read-out: Cytotoxicity IC50 CPT-K5.

In brackets after ≈: the same amount, converted by molar mass. Like-named read-outs stand apart in the source and are kept apart here. Bounds are passed on as bounds.

In the case of `COc1cc2cc3[n+](c(C)c2cc1OC)CCc1c-3ccc2c1OCO2` [Compound 7c, 5,6-Dihydro-8-methyl-3,4-methylenedioxy-10,11-dimethoxydibenzo[a,g]quinolizinium acetosulfate], at human topoisomerase I, the “Topo I-mediated DNA cleavage (REC, Relative Effective Concentration)” value was 10. In series [1], the “Topo II-mediated DNA cleavage (REC, Relative Effective Concentration)” value was 30. The IC50 amounted to 0.6 µM in series [2] (setting [6]); 0.3 µg/mL in series [2] (Homo sapiens, RPMI 8402, 96 h, read-out: Cytotoxicity RPMI 8402); 6.1 µM in series [3] (setting [7]); 0.06 µg/mL in series [4] (read-out: Cytotoxicity KB3-1); 0.008 µg/mL in series [5]. For the same molecule, the “cytotoxicity against glioblastoma cells (in words)” value in series [5] is given as “exceptional cytotoxicity”.

Regarding `COc1cccc2c1C(=O)c1c(O)c3c(c(O)c1C2=O)C[C@@](O)(C(=O)CO)C[C@@H]3O[C@H]1C[C@H](N)[C@H](O)[C@H](C)O1` [doxorubicine], the IC50 in series [2] (Homo sapiens, RPMI 8402, 96 h, leukemia cell line, Table 2, read-out: Cytotoxicity RPMI 8402) was 0.8 µg/mL; in series [4] (epidermal carcinoma, Table 2, read-out: Cytotoxicity KB3-1), 0.1 µg/mL (≈ 0.184 µM); in series [5] (glioblastoma, Table 2), 0.8 µg/mL (≈ 1.47 µM).

As for `COc1cc2cc3c4ccc5c(c4cc[n+]3cc2cc1OC)OCO5.[Cl-]` [Compound 10c, 3,4-Methylenedioxy-10,11-dimethoxydibenzo[a,g]quinolizinium chloride], the “Topo I-mediated DNA cleavage (REC, Relative Effective Concentration)” value on human topoisomerase I is given as 10. In series [1], the “Topo II-mediated DNA cleavage (REC, Relative Effective Concentration)” value is 2. For the same molecule, the IC50 stood at 0.8 µM in series [2] (setting [6]) and 6.8 µM in series [3] (setting [7]).

With “6,7-Dihydroxy-1,2-dimethyl-3-(3, 4-dihydroxyphenyl)isoquinolinium methosulfate [Compound 15]”, the “Topo I-mediated DNA cleavage (REC, Relative Effective Concentration)” value at human topoisomerase I is reported as 1000. For the same molecule, the “Topo II-mediated DNA cleavage (REC, Relative Effective Concentration)” value in series [1] is given as above 1000. For the same molecule, the “cytotoxicity against RPMI 8402 cells (in words)” value in series [2] is reported as “appreciable cytotoxicity”. Also, the IC50 in series [2] (rpmi 8402 cells, 96 h) was 7.3 µM; in series [3] (cpt-k5 cells, 96 h) it was above 122 µM.

Take “8-Methyl-2,3,10,11-Tetramethoxydibenzo[a,g]quinolizinium acetosulfate [Compound 2a]”: at human topoisomerase I, the “Topo I-mediated DNA cleavage (REC, Relative Effective Concentration)” value amounted to 10. Besides, the “Topo II-mediated DNA cleavage (REC, Relative Effective Concentration)” value in series [1] was above 1000. The IC50 in series [2] (rpmi 8402 cells, 96 h) was 4.9 µM; in series [3] (cpt-k5 cells, 96 h), 20 µM.

As to `COc1cc([C@@H]2c3cc4c(cc3[C@@H](O[C@@H]3O[C@@H]5CO[C@@H](c6cccs6)O[C@H]5[C@H](O)[C@H]3O)[C@H]3COC(=O)[C@H]23)OCO4)cc(OC)c1O` [VM-26, reference compound], the “Topo I-mediated DNA cleavage (REC, Relative Effective Concentration)” value on human topoisomerase I is on record as above 1000. In addition, the “Topo II-mediated DNA cleavage (REC, Relative Effective Concentration)” value in series [1] was 1. The IC50 in series [2] (setting [6]) was 0.3 µM; in series [3] (setting [7]) it was 0.5 µM.

Take `COc1cc2cc3[n+](c(C)c2cc1OC)CCc1c-3ccc(OC)c1OC` [Compound 7b, 5,6-Dihydro-8-methyl-3,4,10,11-tetramethoxydibenzo[a,g]quinolizinium acetosulfate]: the “Topo I-mediated DNA cleavage (REC, Relative Effective Concentration)” value at human topoisomerase I is recorded as 1000. Moreover, in series [1], the “Topo II-mediated DNA cleavage (REC, Relative Effective Concentration)” value is given as 1000. Further, the figures for the IC50 in series [2] (setting [6]) and in series [3] (setting [7]) were 6.9 µM and 14 µM, respectively.

For the molecule `COc1cc2cc3[n+](cc2cc1OC)CCc1c-3ccc(OC)c1OC.[Cl-]` [Compound 8b, 5,6-Dihydro-3,4,10,11-tetramethoxydibenzo[a,g]quinolizinium chloride], the “Topo I-mediated DNA cleavage (REC, Relative Effective Concentration)” value at human topoisomerase I is reported as above 1000. The “Topo II-mediated DNA cleavage (REC, Relative Effective Concentration)” value in series [1] is recorded as 1000. The IC50 in series [2] (setting [6]) turned out to be 9 µM; in series [3] (setting [7]) it was 6.4 µM.

Turning to `COc1cc2c(cc1OC)-c1cc3cc(OC)c(OC)cc3c[n+]1CC2.[Cl-]` [Compound 8a, 5,6-Dihydro-2,3,10,11-tetramethoxydibenzo[a,g]quinolizinium chloride], on human topoisomerase I, the “Topo I-mediated DNA cleavage (REC, Relative Effective Concentration)” value was 20. In addition, the “Topo II-mediated DNA cleavage (REC, Relative Effective Concentration)” value in series [1] is above 1000. The IC50 was 10 µM in series [2] (setting [6]) and 18 µM in series [3] (setting [7]).

In the case of `COc1cc2cc(-c3ccc4c(c3)OCO4)nc(C)c2cc1OC` [Compound 12b, 6,7-Dimethoxy-1-methyl-3-(3,4-methylenedioxyphenyl)isoquinoline], the “Topo I-mediated DNA cleavage (REC, Relative Effective Concentration)” value at human topoisomerase I is reported as 1000. Moreover, in series [1], the “Topo II-mediated DNA cleavage (REC, Relative Effective Concentration)” value is on record as above 1000. Further, the results for the IC50 in series [2] (setting [6]) and in series [3] (setting [7]) were 22 µM and 31 µM, respectively.
